Experimental data from PubChem BioAssay (NCI).
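96-well plates; 48 h exposure; 5 concentrations. Endpoints by linear interpolation between flanking doses. Not reached: highest tested concentration assigned. GI50 is the concentration that inhibits growth by half. Definition used: TGI = concentration required for complete inhibition of growth.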

Experiments:
Assay in all cases: NCI tumour cell line growth inhibition, 48 h
HCT-116 colon = test system: HCT-116 colon
CAKI-1 renal = test system: CAKI-1 renal
RPMI-8226 leukemia = test system: RPMI-8226 leukemia
BT-549 breast = test system: BT-549 breast
M14 melanoma = test system: M14 melanoma
OVCAR-3 ovarian = test system: OVCAR-3 ovarian
MOLT-4 leukemia = test system: MOLT-4 leukemia
UACC-257 melanoma = test system: UACC-257 melanoma
K-562 leukemia = test system: K-562 leukemia
HOP-92 NSCLC = test system: HOP-92 NSCLC
SF-539 CNS = test system: SF-539 CNS
NCI/ADR-RES ovarian = test system: NCI/ADR-RES ovarian
NCI-H226 lung = test system: NCI-H226 lung
A549 NSCLC = test system: A549 NSCLC
DU-145 prostate = test system: DU-145 prostate
PC-3 prostate = test system: PC-3 prostate
EKVX NSCLC = test system: EKVX NSCLC
COLO 205 colon = test system: COLO 205 colon
HS 578T breast = test system: HS 578T breast
SF-268 CNS = test system: SF-268 CNS
HT29 colon = test system: HT29 colon
U251 CNS = test system: U251 CNS
MALME-3M melanoma = test system: MALME-3M melanoma
NCI-H23 lung = test system: NCI-H23 lung
UO-31 renal = test system: UO-31 renal
LOX IMVI melanoma = test system: LOX IMVI melanoma
NCI-H460 lung = test system: NCI-H460 lung
OVCAR-5 ovarian = test system: OVCAR-5 ovarian
SNB-75 CNS = test system: SNB-75 CNS
HCC-2998 colon = test system: HCC-2998 colon
SF-295 CNS = test system: SF-295 CNS
HL-60(TB) leukemia = test system: HL-60(TB) leukemia
OVCAR-8 ovarian = test system: OVCAR-8 ovarian
SNB-19 CNS = test system: SNB-19 CNS
IGROV1 ovarian = test system: IGROV1 ovarian
ACHN renal = test system: ACHN renal
SK-OV-3 ovarian = test system: SK-OV-3 ovarian
T-47D breast = test system: T-47D breast
786-0 renal = test system: 786-0 renal
MDA-MB-435 = test system: MDA-MB-435
KM12 colon = test system: KM12 colon
HOP-62 NSCLC = test system: HOP-62 NSCLC
MDA-MB-231 breast = test system: MDA-MB-231 breast
UACC-62 melanoma = test system: UACC-62 melanoma
SK-MEL-28 melanoma = test system: SK-MEL-28 melanoma
SN12C renal = test system: SN12C renal
NCI-H522 lung = test system: NCI-H522 lung
RXF 393 renal = test system: RXF 393 renal
CCRF-CEM leukemia = test system: CCRF-CEM leukemia
SW-620 colon = test system: SW-620 colon
OVCAR-4 ovarian = test system: OVCAR-4 ovarian
HCT-15 colon = test system: HCT-15 colon
SK-MEL-5 melanoma = test system: SK-MEL-5 melanoma
TK-10 renal = test system: TK-10 renal
MCF7 breast = test system: MCF7 breast
SK-MEL-2 melanoma = test system: SK-MEL-2 melanoma
A498 renal = test system: A498 renal

SMILES: CN1CCN(c2ccc3[nH]c(C4=C(O)C(=O)[C@@H]5C(=C4O)N=C(CO)N5C)nc3n2)CC1
- TGI (HCT-116 colon): > 100 µM
- TGI (CAKI-1 renal): > 100 µM
- TGI (RPMI-8226 leukemia): > 100 µM
- TGI (BT-549 breast): > 100 µM
- TGI (M14 melanoma): > 100 µM
- TGI (OVCAR-3 ovarian): > 100 µM
- TGI (MOLT-4 leukemia): > 100 µM
- TGI (UACC-257 melanoma): > 100 µM
- TGI (K-562 leukemia): > 100 µM
- TGI (HOP-92 NSCLC): > 100 µM
- TGI (SF-539 CNS): > 100 µM
- TGI (NCI/ADR-RES ovarian): > 100 µM
- TGI (NCI-H226 lung): > 100 µM
- TGI (A549 NSCLC): > 100 µM
- TGI (DU-145 prostate): > 100 µM
- TGI (PC-3 prostate): > 100 µM
- TGI (EKVX NSCLC): > 100 µM
- TGI (COLO 205 colon): > 100 µM
- TGI (HS 578T breast): > 100 µM
- TGI (SF-268 CNS): > 100 µM
- TGI (HT29 colon): > 100 µM
- TGI (U251 CNS): > 100 µM
- TGI (MALME-3M melanoma): > 100 µM
- TGI (NCI-H23 lung): > 100 µM
- TGI (UO-31 renal): > 100 µM
- TGI (LOX IMVI melanoma): > 100 µM
- TGI (NCI-H460 lung): > 100 µM
- TGI (OVCAR-5 ovarian): > 100 µM
- TGI (SNB-75 CNS): > 100 µM
- TGI (HCC-2998 colon): > 100 µM
- TGI (SF-295 CNS): > 100 µM
- TGI (HL-60(TB) leukemia): > 100 µM
- TGI (OVCAR-8 ovarian): > 100 µM
- TGI (SNB-19 CNS): > 100 µM
- TGI (IGROV1 ovarian): > 100 µM
- TGI (ACHN renal): > 100 µM
- TGI (SK-OV-3 ovarian): > 100 µM
- TGI (T-47D breast): > 100 µM
- TGI (786-0 renal): > 100 µM
- TGI (MDA-MB-435): > 100 µM
- TGI (KM12 colon): > 100 µM
- TGI (HOP-62 NSCLC): > 100 µM
- TGI (MDA-MB-231 breast): > 100 µM
- TGI (UACC-62 melanoma): > 100 µM
- TGI (SK-MEL-28 melanoma): > 100 µM
- TGI (SN12C renal): > 100 µM
- TGI (NCI-H522 lung): > 100 µM
- TGI (RXF 393 renal): > 100 µM
- TGI (CCRF-CEM leukemia): > 100 µM
- TGI (SW-620 colon): > 100 µM
- TGI (OVCAR-4 ovarian): > 100 µM
- TGI (HCT-15 colon): > 100 µM

SMILES: COc1cc2c3c(n(CCCN4CCCNCC4)c(=O)c2cc1OC)-c1cc2c(cc1C3=O)OCO2
- GI50 (HCT-116 colon): 0.282 µM
- TGI (HCT-116 colon): 2.3 µM
- GI50 (CAKI-1 renal): 0.12 µM
- TGI (CAKI-1 renal): 1.65 µM
- GI50 (RPMI-8226 leukemia): 0.571 µM
- TGI (RPMI-8226 leukemia): 2.1 µM
- GI50 (BT-549 breast): 2.2 µM
- TGI (BT-549 breast): 11.5 µM
- GI50 (SK-MEL-5 melanoma): 1.34 µM
- TGI (SK-MEL-5 melanoma): 8.21 µM
- GI50 (M14 melanoma): 0.521 µM
- TGI (M14 melanoma): 7.12 µM
- GI50 (OVCAR-3 ovarian): 2.52 µM
- TGI (OVCAR-3 ovarian): 7.66 µM
- GI50 (MOLT-4 leukemia): 0.0384 µM
- TGI (MOLT-4 leukemia): 50 µM
- GI50 (UACC-257 melanoma): 5.85 µM
- TGI (UACC-257 melanoma): 15.9 µM
- GI50 (K-562 leukemia): 0.476 µM
- TGI (K-562 leukemia): 18.5 µM
- GI50 (HOP-92 NSCLC): 0.135 µM
- TGI (HOP-92 NSCLC): 0.471 µM
- GI50 (SF-539 CNS): 0.29 µM
- TGI (SF-539 CNS): 1.37 µM
- GI50 (NCI/ADR-RES ovarian): 0.493 µM
- TGI (NCI/ADR-RES ovarian): 6.69 µM
- GI50 (NCI-H226 lung): 0.303 µM
- TGI (NCI-H226 lung): 3.03 µM
- GI50 (TK-10 renal): 1.35 µM
- TGI (TK-10 renal): 7.54 µM
- GI50 (A549 NSCLC): 0.322 µM
- TGI (A549 NSCLC): 6.95 µM
- GI50 (DU-145 prostate): 0.166 µM
- TGI (DU-145 prostate): 2.02 µM
- GI50 (PC-3 prostate): 1.33 µM
- TGI (PC-3 prostate): 9.97 µM
- GI50 (EKVX NSCLC): 7.6 µM
- TGI (EKVX NSCLC): 15.5 µM
- GI50 (COLO 205 colon): 2.21 µM
- TGI (COLO 205 colon): 10.8 µM
- GI50 (HS 578T breast): 2.09 µM
- TGI (HS 578T breast): 14.2 µM
- GI50 (SF-268 CNS): 0.758 µM
- TGI (SF-268 CNS): 11.2 µM
- GI50 (HT29 colon): 1.15 µM
- TGI (HT29 colon): 17.6 µM
- GI50 (U251 CNS): 0.181 µM
- TGI (U251 CNS): 2.91 µM
- GI50 (MALME-3M melanoma): 2.47 µM
- TGI (MALME-3M melanoma): 11.9 µM
- GI50 (NCI-H23 lung): 0.346 µM
- TGI (NCI-H23 lung): 2.57 µM
- GI50 (UO-31 renal): 1.33 µM
- TGI (UO-31 renal): 12.9 µM
- GI50 (LOX IMVI melanoma): 0.165 µM
- TGI (LOX IMVI melanoma): 0.886 µM
- GI50 (NCI-H460 lung): 0.0545 µM
- TGI (NCI-H460 lung): 6.47 µM
- GI50 (OVCAR-5 ovarian): 2.69 µM
- TGI (OVCAR-5 ovarian): 9.69 µM
- GI50 (SNB-75 CNS): 0.754 µM
- TGI (SNB-75 CNS): 7.66 µM
- GI50 (HCC-2998 colon): 3.07 µM
- TGI (HCC-2998 colon): 9.45 µM
- GI50 (SF-295 CNS): 0.2 µM
- TGI (SF-295 CNS): 2.66 µM
- GI50 (HL-60(TB) leukemia): 0.147 µM
- TGI (HL-60(TB) leukemia): 0.976 µM
- GI50 (OVCAR-8 ovarian): 0.466 µM
- TGI (OVCAR-8 ovarian): 4.22 µM
- GI50 (SNB-19 CNS): 1.26 µM
- TGI (SNB-19 CNS): 9.62 µM
- GI50 (IGROV1 ovarian): 1.15 µM
- TGI (IGROV1 ovarian): 21.5 µM
- GI50 (ACHN renal): 0.193 µM
- TGI (ACHN renal): 0.751 µM
- GI50 (SK-OV-3 ovarian): 4 µM
- TGI (SK-OV-3 ovarian): 15.5 µM
- GI50 (T-47D breast): 0.984 µM
- TGI (T-47D breast): 7.98 µM
- GI50 (786-0 renal): 0.268 µM
- TGI (786-0 renal): 1.14 µM
- GI50 (MDA-MB-435): 2.58 µM
- TGI (MDA-MB-435): 13.7 µM
- GI50 (MCF7 breast): 0.138 µM
- TGI (MCF7 breast): 6.29 µM
- GI50 (KM12 colon): 1.21 µM
- TGI (KM12 colon): 5.06 µM
- GI50 (HOP-62 NSCLC): 0.558 µM
- TGI (HOP-62 NSCLC): 4.46 µM
- GI50 (MDA-MB-231 breast): 1.06 µM
- TGI (MDA-MB-231 breast): 3.5 µM
- GI50 (UACC-62 melanoma): 0.515 µM
- TGI (UACC-62 melanoma): 6.04 µM
- GI50 (SK-MEL-28 melanoma): 2.49 µM
- TGI (SK-MEL-28 melanoma): 14.1 µM
- GI50 (SK-MEL-2 melanoma): 3.7 µM
- TGI (SK-MEL-2 melanoma): 17.6 µM
- GI50 (SN12C renal): 0.239 µM
- TGI (SN12C renal): 1.28 µM
- GI50 (NCI-H522 lung): 1.87 µM
- TGI (NCI-H522 lung): 24.8 µM
- GI50 (RXF 393 renal): 2.53 µM
- TGI (RXF 393 renal): 11.5 µM
- GI50 (CCRF-CEM leukemia): 0.0721 µM
- TGI (CCRF-CEM leukemia): 8.06 µM
- GI50 (A498 renal): 1.16 µM
- TGI (A498 renal): 13.5 µM
- GI50 (SW-620 colon): 0.267 µM
- TGI (SW-620 colon): 12 µM
- GI50 (OVCAR-4 ovarian): 2.91 µM
- TGI (OVCAR-4 ovarian): 11.1 µM
- GI50 (HCT-15 colon): 1.09 µM
- TGI (HCT-15 colon): 6.74 µM
